Experiment [1] has as its system Hordeum vulgare. In words: Inhibition of fatty acid synthesis in Hordeum vulgare (barley) using [14C]acetate assessed as [14C]-labeled 20C fatty acid level at 7 uM after 3 hr by liquid scintillation counting (reference value: 2.1 +/- 0.4%). In kind it is functional. On the set-up: scale not given: the % may be the effect or the level left.
Experiment [2] has as its system Hordeum vulgare. Briefly: Inhibition of fatty acid synthesis in Hordeum vulgare (barley) assessed as inhibition of [14C]acetate incoporation in total fatty acids at 7 uM measured as total disintegration per g of fresh weight after 3 hr by liquid scintillation counting (reference value: 5.8 +/- 1.6 dpm x 10^6 g'1 fresh wt). In kind it is functional.
Experiment [3] has as its system Hordeum vulgare. Briefly: Inhibition of fatty acid synthesis in Hordeum vulgare (barley) using [14C]malonate assessed as reduction in [14C]-labeled 20C fatty acid level at 70 uM after 3 hr by liquid scintillation counting relative to control. In kind it is functional, organism-based.
Experiment [4] relates to Hordeum vulgare. Briefly: Inhibition of fatty acid synthesis in Hordeum vulgare (barley) using [14C]malonate assessed as reduction in [14C]-labeled 26C fatty acid level at 70 uM after 3 hr by liquid scintillation counting relative to control. The format is functional, organism-based.
In experiment [5] the test system is Hordeum vulgare. In words: Inhibition of fatty acid synthesis in Hordeum vulgare (barley) using [14C]acetate assessed as reduction in [14C]-labeled 24C fatty acid level at 7 uM after 3 hr by liquid scintillation counting. The format is functional, organism-based.
In experiment [6] the test system is Cucumis sativus. Briefly: Inhibition of fatty acid synthesis in Cucumis sativus (cucumber) using [14C]malonate assessed as reduction in [14C]-labeled 24C fatty acid level at 70 uM after 3 hr by liquid scintillation counting relative to control. In kind it is functional, organism-based.
Experiment [7] concerns Cucumis sativus. In words: Inhibition of fatty acid synthesis in Cucumis sativus (cucumber) using [14C]malonate assessed as [14C]-labeled 16C fatty acid level at 70 uM after 3 hr by liquid scintillation counting (reference value: 5.1 +/- 0.9%). The format is functional. Further details: scale not given: the % may be the effect or the level left.
Experiment [8] deals with Hordeum vulgare. Briefly: Inhibition of fatty acid synthesis in Hordeum vulgare (barley) using [14C]malonate assessed as [14C]-labeled 18C fatty acid level at 70 uM after 3 hr by liquid scintillation counting (reference value: 14.4 +/- 6.3%). On the set-up: scale not given: the % may be the effect or the level left. The format is functional.
Experiment [9] has as its system Cucumis sativus. Briefly: Inhibition of fatty acid synthesis in Cucumis sativus (cucumber) assessed as inhibition of [14C]malonate incoporation in total fatty acids at 70 uM measured as total disintegration per g of fresh weight after 3 hr by liquid scintillation counting (reference value: 16.3 +/- 1.1 dpm x 10^6 g'1 fresh wt). The format is functional.
For experiment [10], the system named is Hordeum vulgare. In words: Inhibition of fatty acid synthesis in Hordeum vulgare (barley) using [14C]acetate assessed as [14C]-labeled 16C fatty acid level at 7 uM after 3 hr by liquid scintillation counting (reference value: 30.6 +/- 0.2%). Further details: scale not given: the % may be the effect or the level left. In kind it is functional.
Experiment [11] deals with Hordeum vulgare. Briefly: Inhibition of fatty acid synthesis in Hordeum vulgare (barley) assessed as inhibition of [14C]malonate incoporation in total fatty acids at 70 uM measured as total disintegration per g of fresh weight after 3 hr by liquid scintillation counting (reference value: 5.2 +/- 0.9 dpm x 10^6 g'1 fresh wt). In kind it is functional.
Experiment [12] concerns Cucumis sativus. Briefly: Inhibition of fatty acid synthesis in Cucumis sativus (cucumber) using [14C]acetate assessed as [14C]-labeled 16C fatty acid level at 7 uM after 3 hr by liquid scintillation counting (reference value: 27.6 +/- 5.1%). In kind it is functional. Further details: scale not given: the % may be the effect or the level left.
For experiment [13], the system named is Cucumis sativus. Briefly: Inhibition of fatty acid synthesis in Cucumis sativus (cucumber) using [14C]acetate assessed as reduction in [14C]-labeled 20C fatty acid level at 7 uM after 3 hr by liquid scintillation counting relative to control. In kind it is functional, organism-based.
Experiment [14] concerns Hordeum vulgare. Briefly: Inhibition of fatty acid synthesis in Hordeum vulgare (barley) using [14C]malonate assessed as [14C]-labeled 22C fatty acid level at 70 uM after 3 hr by liquid scintillation counting (reference value: 34.7 +/- 2.4%). The format is functional. Further details: scale not given: the % may be the effect or the level left.
Experiment [15] deals with Hordeum vulgare. In words: Inhibition of fatty acid synthesis in Hordeum vulgare (barley) using [14C]acetate assessed as [14C]-labeled 18C fatty acid level at 7 uM after 3 hr by liquid scintillation counting (reference value: 57 +/- 0.9%). In kind it is functional. On the set-up: scale not given: the % may be the effect or the level left.
For experiment [16], the system named is Cucumis sativus. Briefly: Inhibition of fatty acid synthesis in Cucumis sativus (cucumber) using [14C]malonate assessed as [14C]-labeled 20C fatty acid level at 70 uM after 3 hr by liquid scintillation counting (reference value: 11.7 +/- 2%). In kind it is functional. Further details: scale not given: the % may be the effect or the level left.
Experiment [17] deals with Cucumis sativus. Briefly: Inhibition of fatty acid synthesis in Cucumis sativus (cucumber) using [14C]malonate assessed as [14C]-labeled 18C fatty acid level at 70 uM after 3 hr by liquid scintillation counting (reference value: 14.3 +/- 2%). The format is functional. Further details: scale not given: the % may be the effect or the level left.
For experiment [18], the system named is Hordeum vulgare. In words: Inhibition of fatty acid synthesis in Hordeum vulgare (barley) using [14C]malonate assessed as reduction in [14C]-labeled 24C fatty acid level at 70 uM after 3 hr by liquid scintillation counting relative to control. In kind it is functional, organism-based.
Experiment [19] deals with Hordeum vulgare. Briefly: Inhibition of fatty acid synthesis in Hordeum vulgare (barley) using [14C]acetate assessed as reduction in [14C]-labeled 22C fatty acid level at 7 uM after 3 hr by liquid scintillation counting. The format is functional, organism-based.
Experiment [20] deals with Cucumis sativus. Briefly: Inhibition of fatty acid synthesis in Cucumis sativus (cucumber) using [14C]malonate assessed as reduction in [14C]-labeled 22C fatty acid level at 70 uM after 3 hr by liquid scintillation counting relative to control. The format is functional, organism-based.
Experiment [21] deals with Hordeum vulgare. Briefly: Inhibition of fatty acid synthesis in Hordeum vulgare (barley) using [14C]malonate assessed as [14C]-labeled 16C fatty acid level at 70 uM after 3 hr by liquid scintillation counting (reference value: 3.3 +/- 0.9%). The format is functional. Further details: scale not given: the % may be the effect or the level left.
Experiment [22] deals with Cucumis sativus. Briefly: Inhibition of fatty acid synthesis in Cucumis sativus (cucumber) using [14C]acetate assessed as [14C]-labeled 18C fatty acid level at 7 uM after 3 hr by liquid scintillation counting (reference value: 33.5 +/- 1.5%). In kind it is functional. On the set-up: scale not given: the % may be the effect or the level left.
Experiment [23] has as its system Cucumis sativus. In words: Inhibition of fatty acid synthesis in […] using [14C]acetate assessed as reduction in [14C]-labeled 22C fatty acid level at 7 uM after 3 hr by liquid scintillation counting. The format is functional, organism-based.
For experiment [24], the system named is Cucumis sativus. In words: Inhibition of fatty acid synthesis in Cucumis sativus (cucumber) assessed as inhibition of [14C]acetate incoporation in total fatty acids at 7 uM measured as total disintegration per g of fresh weight after 3 hr by liquid scintillation counting (reference value: 4.4 +/- 1 dpm x 10^6 g'1 fresh wt). In kind it is functional.

The structures appear in SMILES notation. Calls of active or inactive are those of the source. The calls are words filed in the database; no cut-off is given here.

Among the data in ChEMBL document CHEMBL3044779, “The action of herbicides on fatty acid biosynthesis and elongation in barley and cucumber” (Pest Manag Sci, 2010) are Activity and inhibition values, retold here.

As to `CCN(CC)C(=O)n1cnc(S(=O)(=O)c2c(C)cc(C)cc2C)n1` [CAFENSTROLE], the Activity in [1] is recorded as 2.2%; in [2], 5.1 ×10⁶ dpm; in experiment [7], 20.4%; in experiment [8], 65.4%; in experiment [9] it was 9.4 ×10⁶ dpm; in experiment [10] it was 32.4%. Besides, the Activity is recorded as 2.7 ×10⁶ dpm in [11]; 60.4% in experiment [12]; 14.7% in [14]; 66.1% in [15]; 8.4% in experiment [16]; 71.3% in experiment [17]. Besides, the Activity came out at 10% in experiment [21], 39.6% in experiment [22] and 2.5 ×10⁶ dpm in experiment [24]. Further, the inhibition entry in experiment [3], in experiment [4], in experiment [5], in [6], in experiment [13] and in [18] was “Active” in each case. Moreover, the inhibition entry in experiment [19], in experiment [20] and in experiment [23] was “Active” each time.
